In ChEMBL document CHEMBL6182943, “Identification of 4'-Thiouridine as an Orally Available Antiviral Agent Targeting Both RdRp and NiRAN Functions of SARS-CoV-2 Nsp12” (J Med Chem, 2025):
Active and inactive are the calls of the source. No cut-off for these calls is given here.

Legend:
SARS-CoV-2 [1] = test: Antiviral activity against SARS-CoV-2 infected in african green monkey Vero cells assessed as nuclear occupancy at 30 uM pre-infected for 30 mins followed by compound addition and measured 48 hrs post-infection by DAPI staining based immunofluorescence analysis relative to control; assay type: functional, Severe acute respiratory syndrome coronavirus 2; conditions: time 47.5 hrs
[2] = Cytotoxicity against African green monkey Vero cells assessed as reduction in cell viability incubated for 48 hrs by MTT assay; assay type: toxicity, cell-based; conditions: chlorocebus sabaeus
SARS-CoV-2 [3] = test: Antiviral activity against SARS-CoV-2 infected in African green monkey Vero cells assessed as reduction in viral N protein level measured after 1 day by Western blot analysis; assay type: functional, organism-based; conditions: Severe acute respiratory syndrome coronavirus 2, dose 0.1-10 µM
SARS-CoV-2 [4] = test: Antiviral activity against SARS-CoV-2 infected in African green monkey Vero cells assessed as reduction in viral N protein level at 1 to 10 uM measured after 1 day by Western blot analysis relative to control; assay type: functional, Severe acute respiratory syndrome coronavirus 2; set-up: scale not given: the % may be the effect or the level left; conditions: dose 1-10 µM
SARS-CoV-2 [5] = test: Antiviral activity against SARS-CoV-2 infected in African green monkey Vero cells assessed as reduction in viral RNA copy number at 0.1 to 10 uM measured after 1 day by qRT-PCR analysis; assay type: functional, organism-based; conditions: Severe acute respiratory syndrome coronavirus 2, dose 0.1-10 µM
[6] = Terminal half-life in male ICR mouse at 5 mg/kg, iv measured after 24 hrs by LC-MS/MS analysis; assay type: ADME, organism-based; conditions: in vivo, read-out: beta t1/2 (converted)
[7] = AUClast in male ICR mouse at 5 mg/kg, iv measured after 24 hrs by LC-MS/MS analysis; assay type: ADME, organism-based; conditions: in vivo
[8] = AUCinfinity in male ICR mouse at 5 mg/kg, iv measured after 24 hrs by LC-MS/MS analysis; assay type: ADME, organism-based; conditions: in vivo
[9] = Clearance in male ICR mouse at 5 mg/kg, iv measured after 24 hrs by LC-MS/MS analysis; assay type: ADME, organism-based; conditions: in vivo
[10] = MRTlast in male ICR mouse at 5 mg/kg, iv measured after 24 hrs by LC-MS/MS analysis; assay type: ADME, organism-based; conditions: in vivo
[11] = MRTinfinity in male ICR mouse at 5 mg/kg, iv measured after 24 hrs by LC-MS/MS analysis; assay type: ADME, organism-based; conditions: in vivo
[12] = Tmax in male ICR mouse at 10 mg/kg, po measured after 24 hrs by LC-MS/MS analysis; assay type: ADME, organism-based; conditions: in vivo
[13] = Terminal half-life in male ICR mouse at 10 mg/kg, po measured after 24 hrs by LC-MS/MS analysis; assay type: ADME, organism-based; conditions: in vivo, read-out: beta t1/2 (converted)
[14] = AUClast in male ICR mouse at 10 mg/kg, po measured after 24 hrs by LC-MS/MS analysis; assay type: ADME, organism-based; conditions: in vivo
[15] = AUCinfinity in male ICR mouse at 10 mg/kg, po measured after 24 hrs by LC-MS/MS analysis; assay type: ADME, organism-based; conditions: in vivo
[16] = MRTlast in male ICR mouse at 10 mg/kg, po measured after 24 hrs by LC-MS/MS analysis; assay type: ADME, organism-based; conditions: in vivo
[17] = Oral bioavailability in male ICR mouse at 10 mg/kg measured after 24 hrs by LC-MS/MS analysis; assay type: ADME, organism-based; conditions: in vivo
SARS-CoV-2 [18] = test: Antiviral activity against SARS-CoV-2 infected in hACE2 expressing female B6.Cg-Tg(K18-ACE2)2Prlmn/J mouse model assessed as reduction in body weight loss at 50 mg/kg, po preadministered twice daily for 4 days at 8 hrs interval with four hours before and after viral challenge and measured 14 days post viral challenge; assay type: functional, organism-based; conditions: Severe acute respiratory syndrome coronavirus 2, time 14.0 day
SARS-CoV-2 [19] = test: Antiviral activity against SARS-CoV-2 infected in hACE2 expressing female B6.Cg-Tg(K18-ACE2)2Prlmn/J mouse model assessed as survival rate at 100 mg/kg, po preadministered twice daily for 4 days at 8 hrs interval with four hours before and after viral challenge and measured 14 days post viral challenge relative to control; assay type: functional; conditions: Severe acute respiratory syndrome coronavirus 2, 336 h, time 14 day
SARS-CoV-2 [20] = test: Antiviral activity against SARS-CoV-2 infected in hACE2 expressing female B6.Cg-Tg(K18-ACE2)2Prlmn/J mouse model assessed as reduction in body weight loss at 100 mg/kg, po preadministered twice daily for 4 days at 8 hrs interval with four hours before and after viral challenge and measured 14 days post viral challenge; assay type: functional, organism-based; conditions: Severe acute respiratory syndrome coronavirus 2, time 14.0 day
SARS-CoV-2 [21] = test: Antiviral activity against SARS-CoV-2 Wuhan-like (hCoV-19/Korea/KCDC06/2020) infected in human Calu-3 cells assessed as reduction in number of spike-protein expressing cells pre-infected for 30 mins followed by compound addition and measured 48 hrs post-infection by DAPI staining based immunofluorescence analysis relative to control; assay type: functional, organism-based; conditions: Severe acute respiratory syndrome coronavirus 2, Wuhan-like (hCoV-19/Korea/KCDC06/2020)
SARS-CoV-2 [22] = test: Antiviral activity against SARS-CoV-2 Gamma (hCoV-19/Korea95637/KDCA/2021) infected in human Calu-3 cells assessed as reduction in number of spike-protein expressing cells pre-infected for 30 mins followed by compound addition and measured 48 hrs post-infection by DAPI staining based immunofluorescence analysis relative to control; assay type: functional, organism-based; conditions: Severe acute respiratory syndrome coronavirus 2, Gamma (hCoV-19/Korea95637/KDCA/2021)
SARS-CoV-2 [23] = test: Antiviral activity against SARS-CoV-2 Omicron (hCoV-19/Korea/KDCA447321/2021) infected in human Calu-3 cells assessed as reduction in number of spike-protein expressing cells pre-infected for 30 mins followed by compound addition and measured 48 hrs post-infection by DAPI staining based immunofluorescence analysis relative to control; assay type: functional, organism-based; conditions: Severe acute respiratory syndrome coronavirus 2, Omicron (hCoV-19/Korea/KDCA447321/2021)
[24] = Cytotoxicity against human Huh-7 cells assessed as reduction in cell viability by MTT-based cell viability assay; assay type: toxicity
Human coronavirus NL63 = test: Antiviral activity against HCoV-NL63 infected in LLC-MK2 cells assessed as inhibition of virus-induced cytopathic effect measured 2 to 7 days post infection by MTT-based cell viability assay; assay type: functional, organism-based
[25] = Cytotoxicity against rhesus monkey LLC-MK2 cells assessed as reduction in cell viability by MTT-based cell viability assay; assay type: toxicity, Macaca mulatta
dengue virus type 2 = test: Antiviral activity against Dengue virus 2 infected in BHK-21 cells transfected with Renilla luciferase tagged viral subgenomic replicon incubated for 48 hrs by luciferase based assay; assay type: functional, organism-based; conditions: BHK-21, 48 h
Influenza A virus (H1N1) = test: Antiviral activity against Influenza A virus A/Puerto Rico/8/34 (H1N1) infected in MDCK cells assessed as reduction in virus-induced cytopathic effect incubated for 3 days in presence of TPCK-treated trypsin by MTT assay; assay type: functional, organism-based; conditions: 72 h
Influenza A virus = test: Antiviral activity against Influenza A virus A/Hong Kong/8/68 (H3N2) infected in MDCK cells assessed as reduction in virus-induced cytopathic effect incubated for 3 days in presence of TPCK-treated trypsin by MTT assay; assay type: functional, organism-based; conditions: 72 h
Influenza B virus = test: Antiviral activity against Influenza B virus B/Lee/40 infected in MDCK cells assessed as reduction in virus-induced cytopathic effect incubated for 3 days in presence of TPCK-treated trypsin by MTT assay; assay type: functional, organism-based; conditions: B/Lee/40, MDCK, 72 h
Zaire ebolavirus = test: Antiviral activity against Zaire Ebola virus infected in HEK293T cells transfected with viral replication protein and Renilla luciferase pre-infected for 4 hrs followed by compound addition and measured after 48 hrs by Dual-luciferase reporter assay; assay type: functional, organism-based; conditions: HEK-293T

O=c1ccn([C@@H]2S[C@H](CO)[C@@H](O)[C@H]2O)c(=O)[nH]1
Activity (SARS-CoV-2 [1]): >80%
CC50 at 48 h [2]: > 100 µM
Activity (SARS-CoV-2 [3]): Dose-dependent-effect
Activity (SARS-CoV-2 [4]): 100%
Activity (SARS-CoV-2 [5]): Active
half-life [6]: 8.87 h
AUC(0-t) at 24 h [7]: 17500 ng·h/mL
AUC(0-inf) [8]: 20500 ng·h/mL
clearance [9]: 4.17 mL/min/kg
MRT last at 24 h [10]: 7.16 h
MRT inf [11]: 11.4 h
Tmax [12]: 1 h
half-life [13]: 8.2 h
AUC(0-t) at 24 h [14]: 38000 ng·h/mL
AUC(0-inf) [15]: 43600 ng·h/mL
MRT last at 24 h [16]: 6.84 h
bioavailability [17]: 109%
Activity (SARS-CoV-2 [18]): inactive
survival at 100 mg/kg (SARS-CoV-2 [19]): 40%
Activity (SARS-CoV-2 [20]): Active
EC50 (SARS-CoV-2 [21]): 4.08 µM
EC50 (SARS-CoV-2 [22]): 3.48 µM
EC50 (SARS-CoV-2 [23]): 2.66 µM
CC50 [24]: > 100 µM
EC50 (Human coronavirus NL63): 4.53 µM
CC50 [25]: > 100 µM
EC50 (dengue virus type 2): 42 µM
EC50 (Influenza A virus (H1N1)): 13.4 µM
EC50 (Influenza A virus): 15.3 µM
EC50 (Influenza B virus): 20.4 µM
EC50 (Zaire ebolavirus): 33 µM
